Counter-ions that a name gives are not always drawn.
Experiments:
[1] = solubility of belumosudil mesylate; assay type: physicochemical
Protocol: The tablet film consists of polyvinyl alcohol, polyethylene glycol, talc, titanium dioxide and yellow iron oxide. Each 200 mg tablet is a pale yellow film-coated oblong tablet debossed with “KDM” on one side and “200” on the other side. Tablets are stored at room temperature, 20° C. to 25° C. (68° F. to 77° F.); excursions permitted from 15° C. and 30° C. (59° F. to 86° F.).

cGVHD = settings: in vivo; cited from earlier work

Structure (SMILES) | solubility in DMF [1] | solubility in DMSO [1] | solubility in methanol [1] | solubility in water [1] | discontinuation rate because of TEAEs (cGVHD)
CC(C)NC(=O)COc1cccc(-c2nc(Nc3ccc4[nH]ncc4c3)c3ccccc3n2)c1 [Belumosudil mesylate, 2-{3-[4-(1H-indazol-5-ylamino)-2-quinazolinyl]phenoxy}-N-(propan-2-yl) acetamide methanesulfonate (1:1)] | slightly soluble | soluble | slightly soluble | practically insoluble | 
C=CC(=O)N1CCC[C@@H](n2nc(-c3ccc(Oc4ccccc4)cc3)c3c(N)ncnc32)C1 [ibrutinib] |  |  |  |  | 43%
